Experimental findings from the NIST ThermoML archive (doi:10.1016/j.fluid.2013.06.006) are described below.

± gives the expanded uncertainty stated by the source.

A word on the refractive index: it is the speed of light in vacuum divided by its phase velocity in the sample. Usually mass density stands for mass per unit of volume.

Data set [1] is described as follows: refractive index (Na D-line) (dimensionless). Particulars: 293.2 K; 101.33 kPa; Liquid; Standard Abbe refractometry.
For data set [2] the following is noted: 293.2 K; 101.33 kPa; Liquid; Vibrating tube method.

`CCCCCO` [pentan-1-ol]: the refractive index in data set [1] was determined as 1.41 ± 0.0005. In addition, in data set [2], the mass density was found to be 813.98 ± 0.26 kg/m3.
Consider `O` [water], for which the refractive index in data set [1] worked out at 1.3328 ± 0.0005.
Take `CCCCO` [butan-1-ol]: in data set [1], the refractive index came to 1.3983 ± 0.0005. Also, the mass density in data set [2] turned out to be 809.33 ± 0.26 kg/m3.
The like results for `CCCCCCCO` [heptan-1-ol] were, in that order, 1.4244 ± 0.0005 and 821.63 ± 0.26 kg/m3.
On to `O=CO` [formic acid], for which the refractive index in data set [1] is recorded as 1.3711 ± 0.0005. For the same compound, in data set [2], the mass density worked out at 1219.5 ± 0.4 kg/m3.
The like results for `CCCCCCO` [hexan-1-ol] were, in that order, 1.4181 ± 0.0005 and 818.21 ± 0.26 kg/m3.
